# pIC50: −log10 of the molar value. Residues, ends and D or L forms follow the SMILES beside them.
# Molecular target: IL-17RA/IL17RC dimerization induced by IL-17A (Homo sapiens, UniProt Q16552)
# Assay: IL-17RA/IL17RC dimerization assay in response to IL-17A (PathHunter Cytokine Receptor Assay)
# Assay type: cell-based
# Settings: IL-17A at EC80; read-out: IC50 in IL-17RA/IL7RC dimerization assay
# Method in brief: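 Receptor dimerization was read as chemiluminescence from complemented β-galactosidase after IL-17A at EC80 concentration for 6–16 h at 37 °C. Peptides were added 60 min before agonist, at 37 °C or room temperature, with 1% vehicle. Percent inhibition used the EC80-stimulated and vehicle wells as references.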
# IL-17RA/IL17RC dimerization induced by IL-17A, sequence (Q16552 24-155): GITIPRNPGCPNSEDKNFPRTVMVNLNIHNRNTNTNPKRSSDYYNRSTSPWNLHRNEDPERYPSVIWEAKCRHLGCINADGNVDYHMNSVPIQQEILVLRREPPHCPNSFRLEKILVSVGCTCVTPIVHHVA
row,Structure (SMILES),pIC50
1,CC[C@H](C)[C@H](NC(C)=O)C(=O)N[C@@H](Cc1c[nH]cn1)C(=O)N[C@H](C(=O)N[C@H](C(=O)N[C@@H](C)C(=O)N1CCC[C@H]1C(=O)N[C@@H](C)C(=O)N[C@@H](CC(=O)O)C(=O)N[C@@H](CC(C)C)C(=O)N[C@@H](Cc1c[nH]c2ccccc12)C(=O)N[C@@H](CC(=O)O)C(=O)N[C@@H](Cc1c[nH]c2ccccc12)C(=O)N[C@H](C(=O)N[C@@H](CC(N)=O)C(=O)N[C@@H](CCCCN)C(N)=O)[C@@H](C)CC)[C@@H](C)O)C(C)C [SEQ ID NO: 179] (Ac-IHVTAPADLWDWINK-NH2),> 5.00
2,CC[C@H](C)[C@H](NC(C)=O)C(=O)N[C@@H](Cc1ccc(O)cc1)C(=O)N[C@H](C(=O)N[C@H](C(=O)N[C@H](C(=O)N1CCC[C@H]1C(=O)N[C@@H](C)C(=O)N[C@@H](CC(=O)O)C(=O)N[C@@H](CC(C)C)C(=O)N[C@@H](Cc1c[nH]c2ccccc12)C(=O)N[C@@H](CC(=O)O)C(=O)N[C@@H](Cc1c[nH]c2ccccc12)C(=O)N[C@H](C(=O)N[C@@H](CC(N)=O)C(=O)N[C@@H](CCCCN)C(N)=O)[C@@H](C)CC)[C@@H](C)CC)[C@@H](C)O)C(C)C [SEQ ID NO: 166] (Ac-IYVTIPADLWDWINK-NH2),> 5.00
3,CC(=O)N[C@H](C(=O)N[C@@H](Cc1c[nH]cn1)C(=O)N[C@H](C(=O)N[C@H](C(=O)N[C@H](C(=O)N1CCC[C@H]1C(=O)N[C@@H](CCC(N)=O)C(=O)N[C@@H](CCC(=O)O)C(=O)N[C@@H](CC(C)C)C(=O)N[C@@H](Cc1ccc(O)cc1)C(=O)N[C@@H](CCC(=O)O)C(=O)N[C@@H](Cc1c[nH]c2ccccc12)C(=O)N[C@H](C(=O)N[C@@H](CCCNC(=N)N)C(=O)N[C@@H](CCCNC(=N)N)C(N)=O)C(C)C)C(C)C)[C@@H](C)O)C(C)C)C(C)C [SEQ ID NO: 226] (Ac-VHVTVPQELYEWVRR-NH2),> 5.00
4,CC[C@H](C)[C@H](NC(=O)[C@@H](NC(=O)[C@@H](NC(=O)[C@H](Cc1c[nH]cn1)NC(=O)[C@@H](NC(C)=O)C(C)C)C(C)C)[C@@H](C)O)C(=O)N1CCC[C@H]1C(=O)N[C@@H](C)C(=O)N[C@@H](CC(=O)O)C(=O)N[C@@H](Cc1ccccc1)C(=O)N[C@@H](Cc1c[nH]c2ccccc12)C(=O)N[C@@H](CCC(=O)O)C(=O)N[C@@H](Cc1c[nH]c2ccccc12)C(=O)N[C@H](C(=O)N[C@@H](CCCNC(=N)N)C(=O)N[C@@H](CCCNC(=N)N)C(N)=O)C(C)C [SEQ ID NO: 117] (Ac-VHVTIPADFWEWVRR-NH2),> 6.30

# Further lines, results first:
row,pIC50,Structure (SMILES)
1,> 5.00,CC(=O)N[C@H](C(=O)N[C@@H](CCC(=O)O)C(=O)N[C@@H](Cc1ccccc1)C(=O)N[C@@H](CC(N)=O)C(=O)N[C@@H](Cc1ccccc1)C(=O)N1CCC[C@H]1C(=O)N[C@@H](CCC(N)=O)C(=O)N[C@@H](CCC(N)=O)C(=O)N[C@H](C(=O)N[C@@H](Cc1ccc(O)cc1)C(=O)N[C@@H](CCC(=O)O)C(=O)N[C@@H](Cc1c[nH]c2ccccc12)C(=O)N[C@@H](Cc1ccccc1)C(=O)N[C@@H](CC(=O)O)C(=O)N[C@@H](CC(=O)O)C(N)=O)C(C)C)C(C)C [SEQ ID NO: 255] (Ac-VEFNFPQQVYEWFDD-NH2)
2,> 6.30,CC[C@H](C)[C@H](NC(=O)[C@@H](NC(=O)[C@H](Cc1ccccc1)NC(=O)[C@H](Cc1c[nH]cn1)NC(=O)[C@@H](NC(C)=O)C(C)C)[C@@H](C)O)C(=O)N1CCC[C@H]1C(=O)N[C@@H](CCC(N)=O)C(=O)N[C@@H](CC(=O)O)C(=O)N[C@@H](CC(C)C)C(=O)N[C@@H](Cc1ccc(O)cc1)C(=O)N[C@@H](CC(N)=O)C(=O)N[C@@H](Cc1c[nH]c2ccccc12)C(=O)N[C@@H](CCCNC(=N)N)C(=O)N[C@@H](CCCNC(=N)N)C(N)=O [SEQ ID NO: 151] (Ac-VHFTIPQDLYNWRR-NH2)
